Measured values from patent publication EP0492902A1, “Substituted pyridine derivatives for use in the treatment of glaucoma” (MERCK SHARP & DOHME LTD., priority 1990, dated 1992).
Where a name gives a salt, the structure may show the parent alone.

Assay: Change in intraocular pressure (IOP) after administration of compound
Format: in vivo

Row | SMILES | Change in IOP (Maximum mmHg change in intraocular pressure) (Concentration 0.05%) | Change in IOP (Maximum mmHg change in intraocular pressure) (Concentration 0.5%)
1 | COc1cccc(C2CN3CCC2C3)n1 (stereo not drawn) [Description B, Endo-3-[2-(6-methoxypyridin)yl]-1-azabicyclo[2.2.1]heptane Hydrogen Oxalate] | -4.5 mmHg | 
2 | COc1cccc(C2CN3CCC2CC3)n1 (stereo not shown) [Description C, 3-[2-6-Methoxypyridin)yl]-1-azabicyclo[2.2.2]octane Dihydrochloride] | -3.0 mmHg | 
3 | CCOc1cccc(C2CN3CCC2CC3)n1 (stereo not shown) [Description A, 3-[2-(6-Ethoxypyridin)yl]-1-azabicyclo[2.2.2]octane Hydrogen Oxalate] | -3.0 mmHg | 
4 | Clc1cccc(C2CN3CCC2CC3)n1 (stereo not shown) [Description D, 3-[2-(6-Chloropyridin)yl]-1-azabicyclo[2.2.2]octane Hydrogen Oxalate] |  | -3.0 mmHg
